≈ marks a conversion by molar mass, not a printed value.
Experiments:
[1] = property of the substance (amphoteric); assay type: physicochemical; details: dihydrochloride is neutral
[2] = system: Klebsiella pneumoniae IFO 3317; assay: antimicrobial spectrum (minimal inhibitory concentration); assay type: cell-based; details: IFO3317, pH 7.0
Source text: (§1) The antimicrobial spectra of the compound (I) are shown in Table 1. | *Culture medium: 17.5 g of Bacto antibiotic medium 3 (Difco), 5 g of | Bacto yeast extract (Difco), 20 g of Bacto agar (Difco), 1 l of distilled | water; pH 7.0 | The amount of inoculated microorganism: 1 loopful of about 10^6 /ml o | microorganism suspension.

[3] = system: Proteus vulgalis IFO 3988; assay: as above; assay type: cell-based; details: pH 7.0
Source text: as §1

[4] = system: Salmonella typhimurium IFO 12529; assay: as above; assay type: cell-based; details: Salmonella enterica, pH 7.0
Source text: as §1

[5] = system: Brevibacterium thiogenitalis ATCC 19240; assay: as above; assay type: cell-based; details: Corynebacterium glutamicum, ATCC19240, pH 7.0
Source text: as §1

[6] = system: Bacillus megaterium IFO 12108; assay: as above; assay type: cell-based; details: Priestia megaterium, IFO12108, pH 7.0
Source text: as §1

[7] = system: Citrobacter freundii IFO 12681; assay: as above; assay type: cell-based; details: IFO12681, pH 7.0
Source text: as §1

[8] = system: Alcaligenes faecalis IFO 13111; assay: as above; assay type: cell-based; details: IFO13111, pH 7.0
Source text: as §1

[9] = system: Bacillus subtilis NIHJ PCI219; assay: as above; assay type: cell-based; details: NIHJPCI219, pH 7.0
Source text: as §1

[10] = system: Staphylococcus aureus FDA 209P; assay: as above; assay type: cell-based; details: FDA209P, pH 7.0
Source text: as §1

[11] = system: Pseudomonas aeruginosa IFO 3080; assay: as above; assay type: cell-based; details: IFO3080, pH 7.0
Source text: as §1

[12] = system: Serratia marcescens IFO 12648; assay: as above; assay type: cell-based; details: IFO12648, pH 7.0
Source text: as §1

[13] = system: Escherichia coli NIHJ JC-2; assay: as above; assay type: cell-based; details: NIHJJC2, pH 7.0
Source text: as §1

[14] = system: Acinetobacter calcoaceticus IFO 12552; assay: as above; assay type: cell-based; details: IFO12552, pH 7.0
Source text: as §1

[15] = system: β-lactamase produced by Escherichia coli TN 713; assay: stability to β-lactamase (relative ratio of hydrolysis rate); assay type: biochemical; details: PCG rated at 100
Source text: (§2) In the above Table 3, the stabilities against the β-lactamase produced by Escherichia coli TN 713 and β-lactamase produced by Klebsiella oxytoca TN 1719 are expressed on a numerical scale, whereby the stabilities of PCG against these are rated at 100. Also, the stabilities against the β-lactamase produced by Serratia marcescens and β-lactamase produced by Proteus vulgaris are expressed on a numerical scale, whereby the stabilities of CER against these are rated at 100.

[16] = system: β-lactamase produced by Proteus vulgalis GN 4413; assay: as above; assay type: biochemical; details: CER rated at 100
Source text: as §2

[17] = system: β-lactamase produced by Serratia marcescens TN 81; assay: as above; assay type: biochemical; details: CER rated at 100
Source text: as §2

[18] = system: β-lactamase produced by Klebsiella oxytoca TN 1719; assay: as above; assay type: biochemical; details: PCG rated at 100
Source text: as §2

Escherichia coli 0-111 = assay: therapeutic effect to infectious disease of mice; assay type: in vivo; details: 0111; mice infected with Escherichia coli 0-111; subcutaneous (SC); TAN-547 hydrochloride(s)
solubility = assay type: physicochemical
β-lactamase = assay: stability to β-lactamase (overall statement); assay type: biochemical; details: as seen from Table 3
Source text: as §2

[19] = acute toxicity, subcutaneous administration to mice; assay type: in vivo; details: subcutaneously, 1 g/kg
[20] = stability in aqueous solution; assay type: physicochemical

Compound: CC(N)C(=O)NC(C)C(=O)NC(C)C(=O)NC(CCCNC(=N)N)C(O)CC(=O)OCC1=C(C(=O)O)N2C(=O)C(NC=O)(NC(=O)CCCC(N)C(=O)O)C2SC1 (centres unmarked) [TAN-547 C]
- Property of the substance [1]: Amphoteric substance
- MIC [2]: 50 µg/mL (≈ 60.2 µM)
- MIC [3]: 50 µg/mL (≈ 60.2 µM)
- MIC [4]: 25 µg/mL (≈ 30.1 µM)
- MIC [5]: 12.5 µg/mL (≈ 15.1 µM)
- MIC [6]: 12.5 µg/mL (≈ 15.1 µM)
- MIC [7]: 50 µg/mL (≈ 60.2 µM)
- MIC [8]: 12.5 µg/mL (≈ 15.1 µM)
- MIC [9]: 12.5 µg/mL (≈ 15.1 µM)
- MIC [10]: > 50 µg/mL
- MIC [11]: > 50 µg/mL
- MIC [12]: 50 µg/mL (≈ 60.2 µM)
- MIC [13]: 25 µg/mL (≈ 30.1 µM)
- MIC [14]: 6.25 µg/mL (≈ 7.53 µM)
- Relative ratio of hydrolysis rate [15]: < 0.01
- Relative ratio of hydrolysis rate [16]: < 0.01
- Relative ratio of hydrolysis rate [17]: < 0.01
- Relative ratio of hydrolysis rate [18]: < 0.01
- ED50 (Escherichia coli 0-111): 16.2 mg/kg
- Solubility (solubility; dimethylsulfoxide, methanol, acetone, ethyl acetate): Hardly soluble
- Solubility (solubility; water, aqueous acetone, aqueous alcohol): Easily soluble
- stability to β-lactamase (β-lactamase): remarkably stable
- death [19]: no death was observed
- Stability ([20]; acidic aqueous solution): Unstable
- Stability ([20]; basic aqueous solution): Unstable
- Stability ([20]; neutral aqueous solution): slightly unstable

— patent publication US4587333A, “Cephalosporins and their production” (Takeda Chemical Industries, Ltd., priority 1983, dated 1986)
